Assay results: PubChem BioAssay AID2060487 (Molecular Pharmacology Branch, DTP, NCI, 2025)

Test system: 997537-175-T-J1-PDC complex spheroid viability
Assay: Anticancer human tumor 997537-175-T-J1-PDC patient-derived colon adenocarcinoma cell line growth inhibition [GQUAD]
Settings: for IC50: curve of first compound; for viability, T/C: stronger effect = lower value
Text: DNA G-quadruplex Stabilizer Agents in Combinations in Complex Spheroids
A high-throughput screen of multi-cell type tumor spheroids was designed to identify active combinations of DNA G-quadruplex stabilizer agents and targeted small molecules. Complex spheroids include a stromal component modeled by human endothelial cells (HUVEC) and fibroblasts modeled by human mesenchymal stem cells (MSCs). The concentration ranges selected for each drug and investigational agent were based upon clinically achievable concentrations if the clinical Cmax of the agent was known.
Compounds. The drugs and investigational agents: pidnarulex (CX-5461; NSC782164), APTO-253 (NSC789042), BRACO-19 (NSC847499), peposertib (NSC802822), ceralasertib (NSC780249), elimusertib (NSC800525), camonsertib (NSC841442), AZD-1390 (NSC803789), olaparib (NSC753686), talazoparib (NSC767125), ART-558 (NSC835418), sotorasib (NSC818433), MRTX-1133 (NSC836407), SN-38 (NSC673596), topotecan (NSC609699), etoposide (NSC141540), doxorubicin (NSC123127), gemcitabine (NSC613327), 5-fluorouracil (NSC19893), paclitaxel (NSC125973), vemurafenib (NSC761431), panobinostat (NSC761190), R-306465 (JNJ-16241199; NSC773264), adavosertib (NSC754352), TP-3654 (NSC805149), carboplatin (NSC241240), KSQ-4279 (NSC840948), and staurosporine (NSC755774) were obtained from the National Cancer Institute (NCI) Developmental Therapeutics Program Chemical Repository (34). The FDA-approved anticancer drug set is available from the NCI Developmental Therapeutics Program. […] The stock solutions were prepared in dimethyl sulfoxide (DMSO, Sigma-Aldrich, St. Louis, MO, cat. D2650) at 800-fold the tested concentration and stored at -70 degrees C prior to their use. All drugs and investigational agents were tested over a range starting from a high concentration at or near the clinical Cmax and decreasing in half-log increments. If the clinical Cmax for an agent had not been determined, the highest concentration tested was 10 microM.
2.3 Cell Culture. All cells were maintained in an incubator at 37 degrees C and 5% CO2 with 95% humidity. The PDC lines were cultured according to standard operating procedures established by the NCI PDMR. All PDCs were thawed and cultured in Matrigel-coated flasks prepared with a working solution of 1X Ham's F-12 nutrient mix, without supplementation (Invitrogen, cat. 11765054), 100 U/mL penicillin-streptomycin (Invitrogen, cat. 15140122), and 2.5% Matrigel (Corning Inc., cat. 354248) for the first three passages. The 857933-349-R-J2-PDC line was cultured in 6C/Colon 1B media, which includes advanced DMEM/F-12 (Thermo Fisher Scientific, cat. 12634028), 10 mM HEPES (Thermo Fisher Scientific, cat. 15630080), 1X GlutaMAX supplement (Thermo Fisher Scientific, cat. 35050061), 0.1 mg/mL primocin (InvivoGen, cat. ant-pm-2), 10% defined fetal bovine serum, heat inactivated (HyClone Laboratories Inc., cat. SH30070.03HI), 50% L-WRN conditioned media (ATCC, cat. CRL-3276), 1.25 mM N-Acetyl-L-cysteine (Sigma-Aldrich, cat. A9165), 10 mM nicotinamide (Sigma-Aldrich, cat. N0636), 1X B-27 supplement (Thermo Fisher Scientific, cat. 17504044), 1X N-2 supplement (Thermo Fisher Scientific, cat. 17502048), 10 microM Y-27632 dihydrochloride (Tocris Bioscience, cat. 1254), and 50 ng/mL human EGF recombinant protein (Thermo Fisher Scientific, cat. PHG0311). The 485176-168-R4-J1-PDC line was cultured in Panc media, which includes all 6C/Colon 1B media components plus 100 ng/mL human FGF-10 (Thermo Fisher Scientific, cat. 100-26), 500 nM SB-431542 (Selleckchem, cat. S1067), and gastrin (Tocris, cat. 3006).
[…]

[1] = second compound 0.0316 µM, first compound 0.000999 µM
[2] = second compound 0.0316 µM, first compound 0.00316 µM
[3] = second compound 0.0316 µM, first compound 0.00999 µM
[4] = second compound 0.0316 µM, first compound 0.0316 µM
[5] = second compound 0.0316 µM, first compound 0.0999 µM
[6] = second compound 0.0316 µM, first compound 0.316 µM
[7] = second compound 0.1 µM, first compound 0.000999 µM
[8] = second compound 0.1 µM, first compound 0.00316 µM
[9] = second compound 0.1 µM, first compound 0.00999 µM
[10] = second compound 0.1 µM, first compound 0.0316 µM
[11] = second compound 0.1 µM, first compound 0.0999 µM
[12] = second compound 0.1 µM, first compound 0.316 µM
[13] = second compound 0.316 µM, first compound 0.000999 µM
[14] = second compound 0.316 µM, first compound 0.00316 µM
[15] = second compound 0.316 µM, first compound 0.00999 µM
[16] = second compound 0.316 µM, first compound 0.0316 µM
[17] = second compound 0.316 µM, first compound 0.0999 µM
[18] = second compound 0.316 µM, first compound 0.316 µM
[19] = second compound 1 µM, first compound 0.000999 µM
[20] = second compound 1 µM, first compound 0.00316 µM
[21] = second compound 1 µM, first compound 0.00999 µM
[22] = second compound 1 µM, first compound 0.0316 µM
[23] = second compound 1 µM, first compound 0.0999 µM
[24] = second compound 1 µM, first compound 0.316 µM
[25] = second compound 3.16 µM, first compound 0.000999 µM
[26] = second compound 3.16 µM, first compound 0.00316 µM
[27] = second compound 3.16 µM, first compound 0.00999 µM
[28] = second compound 3.16 µM, first compound 0.0316 µM
[29] = second compound 3.16 µM, first compound 0.0999 µM
[30] = second compound 3.16 µM, first compound 0.316 µM
[31] = second compound 10 µM, first compound 0.000999 µM
[32] = second compound 10 µM, first compound 0.00316 µM
[33] = second compound 10 µM, first compound 0.00999 µM
[34] = second compound 10 µM, first compound 0.0316 µM
[35] = second compound 10 µM, first compound 0.0999 µM
[36] = second compound 10 µM, first compound 0.316 µM
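Note: spheroids exposed to the agents for 7 days.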
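Throughout, for viability, T/C: 100% = DMSO vehicle control viability.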

## CC[C@@]1(O)C(=O)OCc2c1cc1n(c2=O)Cc2cc3c(CN(C)C)c(O)ccc3nc2-1 + CN(C)c1ccc(Nc2c3ccc(NC(=O)CCN4CCCC4)cc3nc3cc(NC(=O)CCN4CCCC4)ccc23)cc1
Second compound 0.0316 µM
  IC50: > 316 nM
Second compound 0.1 µM
  IC50: > 316 nM
Second compound 0.316 µM
  IC50: > 316 nM
Second compound 1 µM
  IC50: > 316 nM
Second compound 3.16 µM
  IC50: > 316 nM
Second compound 10 µM
  IC50: > 316 nM
[1]
  viability, T/C: 90%
[2]
  viability, T/C: 84.8%
[3]
  viability, T/C: 86.4%
[4]
  viability, T/C: 61.1%
[5]
  viability, T/C: 82.5%
[6]
  viability, T/C: 64.2%
[7]
  viability, T/C: 99%
[8]
  viability, T/C: 103%
[9]
  viability, T/C: 92.3%
[10]
  viability, T/C: 86.2%
[11]
  viability, T/C: 76.8%
[12]
  viability, T/C: 63.3%
[13]
  viability, T/C: 82.3%
[14]
  viability, T/C: 81.9%
[15]
  viability, T/C: 87.3%
[16]
  viability, T/C: 97.8%
[17]
  viability, T/C: 91.5%
[18]
  viability, T/C: 69.3%
[19]
  viability, T/C: 79.3%
[20]
  viability, T/C: 91.1%
[21]
  viability, T/C: 108%
[22]
  viability, T/C: 90.6%
[23]
  viability, T/C: 96.9%
[24]
  viability, T/C: 68.9%
[25]
  viability, T/C: 63.8%
[26]
  viability, T/C: 79.7%
[27]
  viability, T/C: 90.4%
[28]
  viability, T/C: 86.4%
[29]
  viability, T/C: 95.2%
[30]
  viability, T/C: 65.9%
[31]
  viability, T/C: 86.3%
[32]
  viability, T/C: 88.6%
[33]
  viability, T/C: 98.7%
[34]
  viability, T/C: 103%
[35]
  viability, T/C: 99.6%
[36]
  viability, T/C: 73.3%

## CCc1c2c(nc3ccc(O)cc13)-c1cc3c(c(=O)n1C2)COC(=O)[C@]3(O)CC + CN(C)c1ccc(Nc2c3ccc(NC(=O)CCN4CCCC4)cc3nc3cc(NC(=O)CCN4CCCC4)ccc23)cc1
Second compound 0.0316 µM
  IC50: 13.8 nM
Second compound 0.1 µM
  IC50: 10.3 nM
Second compound 0.316 µM
  IC50: 10.2 nM
Second compound 1 µM
  IC50: 15.7 nM
Second compound 3.16 µM
  IC50: 15.8 nM
Second compound 10 µM
  IC50: 21.3 nM
[1]
  viability, T/C: 97.8%
[2]
  viability, T/C: 84.2%
[3]
  viability, T/C: 58.6%
[4]
  viability, T/C: 29.5%
[5]
  viability, T/C: 6.84%
[6]
  viability, T/C: 4.15%
[7]
  viability, T/C: 104%
[8]
  viability, T/C: 83.4%
[9]
  viability, T/C: 50.6%
[10]
  viability, T/C: 22.9%
[11]
  viability, T/C: 9.03%
[12]
  viability, T/C: 4.26%
[13]
  viability, T/C: 97%
[14]
  viability, T/C: 78.4%
[15]
  viability, T/C: 51.6%
[16]
  viability, T/C: 22.6%
[17]
  viability, T/C: 8.39%
[18]
  viability, T/C: 4.2%
[19]
  viability, T/C: 77.5%
[20]
  viability, T/C: 58.7%
[21]
  viability, T/C: 67.6%
[22]
  viability, T/C: 23.9%
[23]
  viability, T/C: 11.6%
[24]
  viability, T/C: 3.86%
[25]
  viability, T/C: 75%
[26]
  viability, T/C: 85%
[27]
  viability, T/C: 57.8%
[28]
  viability, T/C: 33.8%
[29]
  viability, T/C: 9.84%
[30]
  viability, T/C: 4.51%
[31]
  viability, T/C: 83.9%
[32]
  viability, T/C: 84%
[33]
  viability, T/C: 80.4%
[34]
  viability, T/C: 34.2%
[35]
  viability, T/C: 11.7%
[36]
  viability, T/C: 4.48%
